Experiment [1] is described as follows: Inhibition of LAG-3/FGL1 (unknown origin) interaction incubated for 2 hrs by TR-FRET assay. Further details: species or system Homo sapiens. Background: In TR-FRET formats the signal depends on donor and acceptor labels being close together.
A short description of experiment [2]: Inhibition of LAG-3-MHCII (unknown origin) interaction incubated for 2 hrs by TR-FRET assay. The arrangement: species or system Homo sapiens.
In the next experiment the test system is Jurkat T. The experiment is described as follows: (§1) Inhibition of LAG-3-MHCII interaction in human Jurkat T cells expressing human LAG-3/luciferase reporter co-cultured with MHCII antigen presenting cells assessed as increase in luminescence by Bio-Glo reagent based assay. It counts as cell-based. (A reporter such as luciferase makes a cellular process visible.)

Experiment [3] can be described thus: as §1. Type of experiment: cell-based.
For a further experiment, the species on record is Homo sapiens. Description: Inhibition of LAG-3-MHCII (unknown origin) interaction at 10 to 30 uM incubated for 2 hrs by TR-FRET assay relative to control. Particulars: dose 10-30 µM.
The nature of experiment [4]: Inhibition of LAG-3/FGL1 (unknown origin) interaction by ELISA analysis. Further details: species or system Homo sapiens. In general terms: An ELISA detects its analyte on a solid surface through an enzyme-linked reagent.

As a reminder, the IC50 is the midpoint of a concentration-inhibition curve. A word on the inhibition: it is the relative decrease from the control value, in per cent.

As for `C=CCn1c(C)cc(C(=O)COc2ccc(NC(=O)c3cccc([N+](=O)[O-])c3)cc2)c1C`, the half-maximal inhibitory concentration (IC50) in experiment [1] and in experiment [2] was greater than 50 µM each time.
As to `Cc1ccc(-n2c(C)cc(C(=O)COc3ccc(NC(=O)c4ccc(C(C)(C)C)cc4)cc3)c2C)cc1`, the figures for the half-maximal inhibitory concentration (IC50) in experiment [1] and in experiment [2] were 18.2 µM and 19.3 µM, respectively.
For `Cc1cc(C(=O)COc2ccc(C(N)=O)cc2)c(C)n1C`, the IC50 in experiment [1] and in experiment [2] was greater than 50 µM in each case.
Turning to `Cc1cc(C(=O)COc2ccc(NC(=O)c3ccco3)cc2)c(C)n1Cc1ccccc1`, the IC50 is 6.52 µM in experiment [1], 4.21 µM in experiment [2] and 6.95 µM in experiment [3]. In addition, in the experiment with Jurkat T, the inhibition entry is “Dose-Dependent Effect”.
On to `CC(=O)Nc1ccc(OCC(=O)c2cc(C)n(-c3ccc(OC(F)F)cc3)c2C)cc1`, for which the IC50 in experiment [1] was found to be 16.5 µM; in experiment [2], 12.4 µM.
For `Cc1cc(C(=O)COc2ccc(NC(=O)c3ccco3)cc2)c(C)n1-c1ccccc1`, the IC50 in experiment [1] turned out to be 13.7 µM; in experiment [2], 8.36 µM.
The matching figures for `CC(=O)Nc1ccc(OCC(=O)c2cc(C)n(CCc3ccccc3)c2C)cc1`: 28.5 µM and 23.4 µM.
On the same counts, the results for `CC(=O)Nc1cccc(OCC(=O)c2cc(C)n(-c3ccc(C)c(C)c3)c2C)c1` are 25.5 µM and 31.4 µM.
On the same counts, the results for `CC(=O)Nc1ccc(OCC(=O)c2cc(C)n(Cc3ccccc3)c2C)cc1` are 20.4 µM and 18.3 µM.
On to `Cc1cc(C(=O)COc2ccccc2C(=O)Nc2ccccc2)c(C)[nH]1`, for which the half-maximal inhibitory concentration (IC50) in experiment [1] and in experiment [2] was greater than 50 µM throughout.
In the case of `CC(=O)Nc1ccc(OCC(=O)c2cc(C)n(C(C)C)c2C)cc1`, the 50% inhibitory concentration (IC50) in experiment [1] and in experiment [2] was greater than 50 µM throughout.
Turning to `CC(=O)Nc1ccc(OCC(=O)c2cc(C)n(-c3ccc(Cl)c(Cl)c3)c2C)cc1`, the IC50 in experiment [1] was 10.3 µM; in experiment [2] it was 11.2 µM.
Consider `CC(=O)Nc1ccc(OCC(=O)c2cc(C)n(-c3ccccc3F)c2C)cc1`, for which the figures for the IC50 in experiment [1] and in experiment [2] were 29.4 µM and 21.3 µM, respectively.
`Cc1ccc(-n2c(C)cc(C(=O)COc3ccc(C(N)=O)cc3)c2C)cc1`: the IC50 in experiment [1] is 29.4 µM; in experiment [2] it was 26.9 µM.
On the same counts, the results for `Cc1cc(C(=O)COc2ccccc2C(=O)Nc2ccccc2)c(C)n1CC1CCCO1` (stereo not drawn) are 14.2 µM and 18.4 µM.
The matching figures for `CC(=O)Nc1ccccc1OCC(=O)c1cc(C)n(CCc2ccc(F)cc2)c1C`: 32.7 µM and 28.4 µM.
On to `Cc1cc(C(=O)COc2ccc(NC(=O)c3ccco3)cc2)c(C)n1C`, for which the IC50 in experiment [1] is 16.7 µM; in experiment [2], 14.8 µM; in experiment [4], 18.5 µM. Also, in the experiment filed under Homo sapiens, the inhibition is greater than 90%.
As to `COc1ccccc1C(=O)Nc1ccc(OCC(=O)c2cc(C)n(C)c2C)cc1`, the figures for the IC50 in experiment [1] and in experiment [2] were 35.4 µM and 25.7 µM, respectively.
For `Cc1cc(C(=O)COc2ccc(NC(=O)c3ccccc3)cc2)c(C)n1Cc1ccco1`, the IC50 in experiment [1] turned out to be 9.94 µM; in experiment [2], 9.38 µM.
`CCCn1c(C)cc(C(=O)COc2ccccc2NC(C)=O)c1C`: the concentration for half-maximal inhibition (IC50) in experiment [1] and in experiment [2] was greater than 50 µM throughout.
`COCCCn1c(C)cc(C(=O)COc2ccc(NC(C)=O)cc2)c1C`: the IC50 in experiment [1] and in experiment [2] was greater than 50 µM in each case.
Regarding `CCCn1c(C)cc(C(=O)COc2ccc(NC(C)=O)cc2)c1C`, the IC50 in experiment [1] and in experiment [2] was greater than 50 µM throughout.
`C=CCn1c(C)cc(C(=O)COc2ccccc2C(=O)Nc2ccccc2)c1C`: the concentration for half-maximal inhibition (IC50) in experiment [1] and in experiment [2] was greater than 50 µM each time.
Take `Cc1cc(C(=O)COc2ccc(N3CCCC3=O)cc2)c(C)n1C1CC1`: the concentration for half-maximal inhibition (IC50) in experiment [1] was found to be 20.4 µM; in experiment [2], 17.2 µM.
On the same counts, the results for `Cc1cc(C(=O)COc2ccc(C(N)=O)cc2)c(C)n1CCc1ccc(F)cc1` are 22.4 µM and 18.3 µM.
Take `CC(=O)Nc1ccc(OCC(=O)c2cc(C)n(CCc3ccc(F)cc3)c2C)cc1`: the IC50 was 21.4 µM in experiment [1] and 28.4 µM in experiment [2].
The matching figures for `CCC(=O)c1ccc(OCC(=O)c2cc(C)n(Cc3ccco3)c2C)cc1`: 28.7 µM and 20.4 µM.

The values above are taken from ChEMBL document CHEMBL5257143, “Discovery of First-in-Class Small Molecule Inhibitors of Lymphocyte Activation Gene 3 (LAG-3)” (ACS Med Chem Lett, 2023).
